# Measurements reported in patent publication US6455567B1, “Method of treatment” (Pfizer Inc., priority 1994, dated 2002).
# What was measured:
# [1] = test system: vasodilation in the rat hind paw; test: Vasodilation (skin blood flow) in the rat hind paw after saphenous nerve stimulation, method of Kajekar et al; type: in vivo; conditions: intravenous
# Procedure: The test compound is administered intravenously at different doses and the results are recorded as the change in the increase in skin blood flow.
# [2] = test system: oedema in the rat hind paw; conditions: intravenous, saphenous nerve stimulation; cited from earlier work
# [3] = test system: neurogenic inflammation in dura mater; conditions: in vivo; cited from earlier work
SMILES,lowest dose with significant effect on the increase in skin blood flow (vasodilation) [1] [mol/kg],lowest administered amount with significant effect on ratio of plasma extravasation in the stimulated/unstimulated hind paw [2] [mol/kg],potency against neurogenic inflammation in dura mater [3]
"CNS(=O)(=O)Cc1ccc2[nH]cc(C[C@H]3CCCN3C)c2c1 [CP-122,288, (R)-5-(methylaminosulphonylmethyl)-3-(N-methylpyrrolidin-2-ylmethyl)-1H-indole]",2e-12,2e-14,exhibit potency against neurogenic inflammation
"CNS(=O)(=O)Cc1ccc2[nH]cc(C[C@H]3CCCN3)c2c1 [CP-122,638, (R)-5-(methylaminosulphonylmethyl)-3-(pyrrolidin-2-ylmethyl)-1H-indole]",–,–,exhibit potency against neurogenic inflammation
